Experimental data: patent US20040009927A1, “Methods and compounds for reducing biofilm formulation” (priority 2002, published 2004)

System: MG1655 and its csrA mutant TRMG1655, cya mutants and cya wild type
Conditions: cAMP 2 or 5 mM in growth medium; in most cases

Nc1ncnc2c1ncn2[C@@H]1O[C@@H]2COP(=O)(O)O[C@H]2[C@H]1O [cAMP, cyclic AMP] was tested, and the “biofilm formation by cya wild type strains” value was “increased biofilm formation”.
